# Measurements published in ChEMBL document CHEMBL1201862, “PubChem BioAssay data set” (2004).
# The source made the active and inactive calls.
# Experiments:
# Cytochrome P450 2C9 = Cytochrome P450 2C9 (Homo sapiens, UniProt P11712)
# Cytochrome P450 3A4 = Cytochrome P450 3A4 (Homo sapiens, UniProt P08684);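 also: CYP3A4 tested as one member of a cytochrome P450 panel screen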
# Vero = assay: cells; format: functional; details: Chlorocebus sabaeus
# [1] = molecular target: T1, DNA repair and recombination protein RAD54-like (Homo sapiens, UniProt Q92698); assay: inhibitors of human RAD54 branch migration, confirmation, biochemical, fluorescence, cherry-picked samples, dose series (AID 651657); format: functional
# T1 sequence (Q92698 whole entry): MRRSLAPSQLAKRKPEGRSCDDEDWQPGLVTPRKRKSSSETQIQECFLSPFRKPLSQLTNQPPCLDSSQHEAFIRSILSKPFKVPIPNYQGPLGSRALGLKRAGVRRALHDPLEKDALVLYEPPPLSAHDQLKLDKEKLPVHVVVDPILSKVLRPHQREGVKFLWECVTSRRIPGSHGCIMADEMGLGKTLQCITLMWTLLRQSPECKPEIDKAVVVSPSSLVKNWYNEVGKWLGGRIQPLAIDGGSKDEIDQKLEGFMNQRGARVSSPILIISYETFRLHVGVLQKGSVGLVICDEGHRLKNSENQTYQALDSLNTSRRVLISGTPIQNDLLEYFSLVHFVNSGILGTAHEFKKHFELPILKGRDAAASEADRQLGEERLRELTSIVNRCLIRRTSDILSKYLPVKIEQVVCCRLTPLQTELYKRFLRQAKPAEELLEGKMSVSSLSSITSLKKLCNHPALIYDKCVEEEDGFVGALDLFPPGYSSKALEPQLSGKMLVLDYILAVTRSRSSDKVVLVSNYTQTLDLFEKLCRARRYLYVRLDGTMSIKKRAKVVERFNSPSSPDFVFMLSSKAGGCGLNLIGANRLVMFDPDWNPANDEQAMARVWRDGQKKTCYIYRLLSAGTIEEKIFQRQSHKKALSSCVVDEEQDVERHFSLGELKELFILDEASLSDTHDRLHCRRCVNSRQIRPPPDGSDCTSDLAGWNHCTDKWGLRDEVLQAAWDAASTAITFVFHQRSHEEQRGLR
# [2] = cytotoxicity toward NIH3T3 fibroblasts, dose response, counter-screen, cell-based, ATP luminescence, mouse fibroblasts (AID 2010); format: functional;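 also: cells exposed to compound for about 90 hours before reading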
# [3] = cytotoxicity in MIN6 insulinoma cells, dose response, cytotoxicity control, cell-based, mouse insulinoma (AID 2122); format: functional;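 also: confirmatory high-throughput counterscreen run to flag cytotoxic compounds; mouse MIN-6 beta cells carrying an insulin promoter eGFP reporter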
# [4] = insulin promoter down-regulators in MIN6 cells, imaging, high-content screening, mouse beta cells (AID 1628); format: functional
# [5] = inhibitors of intracellular T. cruzi replication, confirmation, NIH3T3 host cells, beta-gal luminescence (AID 2044); format: functional, cell-based;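 also: intracellular parasites grown in NIH/3T3 mouse fibroblasts as host cells; luminescent beta-galactosidase reporter signal from transgenic T. cruzi replicating inside host cells; inhibitors lower the luminescence signal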
# [6] = molecular target: Type-1 angiotensin II receptor (Homo sapiens, UniProt P30556); assay: AT1 receptor antagonists, dose response, selectivity assay for APJ receptor antagonist project, cell-based, uHTS hits (AID 463214); format: functional;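 also: antagonist potency against angiotensin II stimulated AT1 response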
# Beta-galactosidase = Beta-galactosidase (Escherichia coli, UniProt Q8VNN2); assay: PubChem AID 485352; format: functional
# [7] = A549 cell cytotoxicity, dose response, cytotoxicity control, plate reader, cherry-pick, antagonist series (AID 743412); format: functional, cell-based
# [8] = molecular target: T2, Microphthalmia-associated transcription factor (Homo sapiens, UniProt O75030); assay: TRPM1 promoter luciferase signal decrease, dose response, MITF inhibitor project, cell-based, SK-MEL-5, cherry-picked, set 3 (AID 493073); format: functional
# T2 sequence (O75030 whole entry): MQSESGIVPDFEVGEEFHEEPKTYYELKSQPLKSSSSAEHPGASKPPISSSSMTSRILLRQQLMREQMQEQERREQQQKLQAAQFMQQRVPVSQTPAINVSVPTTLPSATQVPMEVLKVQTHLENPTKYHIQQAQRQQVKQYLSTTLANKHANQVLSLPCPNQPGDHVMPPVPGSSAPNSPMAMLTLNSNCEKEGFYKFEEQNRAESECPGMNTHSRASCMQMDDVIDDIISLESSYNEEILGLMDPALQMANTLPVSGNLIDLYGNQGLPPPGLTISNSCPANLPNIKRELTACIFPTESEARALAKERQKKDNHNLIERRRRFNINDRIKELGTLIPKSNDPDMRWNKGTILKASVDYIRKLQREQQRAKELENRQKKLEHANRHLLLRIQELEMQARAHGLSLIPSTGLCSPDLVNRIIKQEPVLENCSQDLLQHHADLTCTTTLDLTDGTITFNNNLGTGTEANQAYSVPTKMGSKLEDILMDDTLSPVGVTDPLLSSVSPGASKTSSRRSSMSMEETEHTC
# A-375 [9] = assay: MITF: Counter assay: A375 proliferation Measured in Cell-Based System Using Plate Reader - 2084-03_Inhibitor_Dose_DryPowder_Activity. [Related pubchem assays (depositor defined):AID488944]; format: functional; details: Homo sapiens
# [10] = HEK293 cell cytotoxicity, dose response, cytotoxicity control, plate reader, cherry-picked samples (AID 743446); format: functional, cell-based
# [11] = MC4R antagonists, dose response, counter-screen for LGR2 antagonist project, cell-based, plate reader, cherry pick (AID 743444); format: functional;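 also: transfected HEK 293 cells stimulated with alpha-MSH peptide; potency of inhibitors of the alpha-MSH evoked signal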
# [12] = LGR2 antagonists, dose response, cell-based, HEK293, CRE-luciferase reporter, cherry pick, set 2 (AID 743343); format: functional;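 also: transfected cells were stimulated with diluted bursicon conditioned medium after compound addition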
# Escherichia coli = assay: microbe, parasite or virus in culture
# [13] = molecular target: T3, DNA repair protein RAD52 homolog (Homo sapiens, UniProt P43351); format: functional, biochemical
# T3 sequence (P43351 whole entry): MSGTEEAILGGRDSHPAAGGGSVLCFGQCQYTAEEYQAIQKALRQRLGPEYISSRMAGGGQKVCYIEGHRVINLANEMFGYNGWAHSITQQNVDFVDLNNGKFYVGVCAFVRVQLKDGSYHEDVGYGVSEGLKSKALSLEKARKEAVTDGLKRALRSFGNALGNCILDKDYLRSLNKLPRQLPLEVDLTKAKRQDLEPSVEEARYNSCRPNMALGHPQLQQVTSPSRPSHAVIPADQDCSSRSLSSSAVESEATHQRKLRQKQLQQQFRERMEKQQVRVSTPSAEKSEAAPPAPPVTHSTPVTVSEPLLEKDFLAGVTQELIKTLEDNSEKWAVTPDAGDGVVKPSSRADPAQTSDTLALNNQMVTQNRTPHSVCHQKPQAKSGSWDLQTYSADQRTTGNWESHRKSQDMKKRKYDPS
# [14] = molecular target: Induced myeloid leukemia cell differentiation protein Mcl-1 (Homo sapiens, UniProt Q07820); format: functional
# [15] = molecular target: Eukaryotic translation initiation factor 4E (Mus musculus, UniProt P63073); assay: eIF4E–eIF4G protein interaction inhibitors, dose response, biochemical, TR-FRET (AID 855); format: functional;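 also: potency for disrupting eIF4E binding to eIF4GI seen as loss of FRET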
# SUMO-activating enzyme [16] = molecular target: T4, SUMO-activating enzyme (Homo sapiens, UniProt Q9UBT2); assay: SUMOylation inhibitor hit validation, confirmation, SUMOylation inhibitor project, biochemical, AlphaScreen (AID 2018); format: functional
# SUMO-activating enzyme [17] = molecular target: T4, SUMO-activating enzyme; assay: inhibitors of in vitro SUMOylation cascade, primary screen, biochemical, HTRF, uHTS (AID 2006); format: protein-complex assay
# Genome polyprotein = Genome polyprotein (Hepatitis C virus, UniProt Q2Q167); assay: HCV core protein dimerization inhibitors, dose response, biochemical, TR-FRET (AID 2159); set-up: species or system Hepacivirus hominis;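 also: blocks dimerization of HCV core protein measured by TR-FRET between tagged core106 pairs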
# Cytochrome P450 1A2 = molecular target: T5, Cytochrome P450 1A2 (Homo sapiens, UniProt P05177);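 also: PubChem cytochrome P450 panel assay, CYP1A2 panel member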
# T5 sequence (P05177 whole entry): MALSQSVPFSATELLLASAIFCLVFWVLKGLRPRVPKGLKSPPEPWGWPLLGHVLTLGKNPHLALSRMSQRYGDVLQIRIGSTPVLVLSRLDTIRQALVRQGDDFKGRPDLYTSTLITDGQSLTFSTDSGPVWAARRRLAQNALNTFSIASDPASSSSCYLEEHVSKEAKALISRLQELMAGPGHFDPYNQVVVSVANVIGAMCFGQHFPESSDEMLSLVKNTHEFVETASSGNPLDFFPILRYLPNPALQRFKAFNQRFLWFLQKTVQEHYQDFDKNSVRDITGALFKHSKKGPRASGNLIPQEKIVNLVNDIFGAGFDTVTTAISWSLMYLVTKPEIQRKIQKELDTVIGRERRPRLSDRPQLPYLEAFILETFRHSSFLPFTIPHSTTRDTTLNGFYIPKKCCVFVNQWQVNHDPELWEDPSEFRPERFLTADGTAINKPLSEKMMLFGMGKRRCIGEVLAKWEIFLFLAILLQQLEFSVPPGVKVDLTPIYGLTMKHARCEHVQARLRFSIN
# Cytochrome P450 2C19 = Cytochrome P450 2C19 (Homo sapiens, UniProt P33261); assay: Cytochrome panel assay with activity outcomes. Panel member name: p450-cyp2c19 Compounds with AC50 equal or less than 10 uM are considered active; format: functional; details: read-out: AC50
# [18] = molecular target: T6, Intestinal-type alkaline phosphatase (Homo sapiens, UniProt P09923); assay: human intestinal alkaline phosphatase activators, dose response, biochemical, luminescence, uHTS hits (AID 463120); format: functional
# [19] = molecular target: Intestinal-type alkaline phosphatase (Mus musculus, UniProt P24822); assay: PubChem AID 488874; format: functional
# [20] = molecular target: T7, Alkaline phosphatase, tissue-nonspecific isozyme (Homo sapiens, UniProt P05186); assay: TNAP enzyme activators, dose response, selectivity assay for human IAP activator project, biochemical, TNAP isozyme, human IAP uHTS hits (AID 488886); format: functional;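 also: potency of compounds raising TNAP activity as a selectivity check on IAP activators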
# T7 sequence (P05186 whole entry): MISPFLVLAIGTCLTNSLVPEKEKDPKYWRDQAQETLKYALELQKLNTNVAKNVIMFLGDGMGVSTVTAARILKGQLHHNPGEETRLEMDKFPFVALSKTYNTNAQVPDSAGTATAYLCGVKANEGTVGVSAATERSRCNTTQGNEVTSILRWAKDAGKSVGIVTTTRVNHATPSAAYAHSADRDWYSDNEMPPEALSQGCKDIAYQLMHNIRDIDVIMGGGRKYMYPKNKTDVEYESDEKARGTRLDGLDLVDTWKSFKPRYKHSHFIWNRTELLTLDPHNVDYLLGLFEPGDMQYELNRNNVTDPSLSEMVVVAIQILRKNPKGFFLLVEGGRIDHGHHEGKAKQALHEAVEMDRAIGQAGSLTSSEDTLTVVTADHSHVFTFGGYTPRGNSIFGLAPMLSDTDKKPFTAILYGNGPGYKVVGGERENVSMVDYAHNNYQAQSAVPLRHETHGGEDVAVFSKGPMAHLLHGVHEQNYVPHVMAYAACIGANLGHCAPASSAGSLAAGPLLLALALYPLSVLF
# [21] = molecular target: T6, Intestinal-type alkaline phosphatase; assay: human IAP activators, dose response, biochemical, luminescent, uHTS hits, set 2 (AID 488817); format: functional;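 also: potency of activators that raise enzyme activity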
# A-375 [22] = assay: A375 melanoma cell viability reduction, dose response, counter-screen for MITF modulator project, cherry-pick samples, set 2 (AID 540335); format: functional, cell-based; details: Homo sapiens
# HEK293 [23] = assay: SAR Analysis of small molecule inhibitors of B-cell specific antigen receptor-induced NF-kB activation in a HEK-293T cell line using a luminescence assay - Set 2. [Related pubchem assays (depositor defined):AID435022, AID435025, AID489021]; format: functional, cell-based; details: Homo sapiens
# Jurkat = assay: SAR Analysis of small molecule inhibitors of […] specific antigen receptor-induced NF-kB activation in a Jurkat cell line using a luminescence assay - Set 3. [Related pubchem assays (depositor defined):AID435022, AID435025, AID465]; format: functional, cell-based; details: Homo sapiens
# HEK293 [24] = assay: cytotoxicity in HEK293T NF-kB-Luc cells, SAR follow-up, cytotoxicity control for NF-kB activator project, cell-based, resazurin fluorescence (AID 493251); format: functional; details: Homo sapiens
# T6 sequence (P09923 whole entry): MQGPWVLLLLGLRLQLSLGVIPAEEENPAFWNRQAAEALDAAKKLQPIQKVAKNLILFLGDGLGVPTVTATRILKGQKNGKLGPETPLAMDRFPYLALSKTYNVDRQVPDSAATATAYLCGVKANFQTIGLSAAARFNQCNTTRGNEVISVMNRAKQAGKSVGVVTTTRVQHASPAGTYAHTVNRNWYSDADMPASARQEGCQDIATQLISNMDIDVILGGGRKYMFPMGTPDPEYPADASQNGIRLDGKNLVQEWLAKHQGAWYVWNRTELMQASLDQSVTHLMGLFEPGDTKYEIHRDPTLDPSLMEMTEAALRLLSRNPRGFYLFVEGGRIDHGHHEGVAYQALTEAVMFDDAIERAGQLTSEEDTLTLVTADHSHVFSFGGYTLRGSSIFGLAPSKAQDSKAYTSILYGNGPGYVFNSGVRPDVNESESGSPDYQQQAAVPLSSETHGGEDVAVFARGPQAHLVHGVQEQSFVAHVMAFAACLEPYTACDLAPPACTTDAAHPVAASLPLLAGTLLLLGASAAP
# T4 sequence (Q9UBE0 whole entry): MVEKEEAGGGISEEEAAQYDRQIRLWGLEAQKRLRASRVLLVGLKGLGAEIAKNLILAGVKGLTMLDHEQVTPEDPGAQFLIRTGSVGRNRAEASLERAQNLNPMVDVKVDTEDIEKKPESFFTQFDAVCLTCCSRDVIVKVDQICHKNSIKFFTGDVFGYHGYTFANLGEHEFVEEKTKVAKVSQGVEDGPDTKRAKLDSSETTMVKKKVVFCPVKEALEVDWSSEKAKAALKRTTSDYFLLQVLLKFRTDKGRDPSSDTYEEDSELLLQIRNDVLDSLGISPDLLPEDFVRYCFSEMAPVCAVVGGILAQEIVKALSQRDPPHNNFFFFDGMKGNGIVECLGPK
# T4 sequence (Q9UBT2 whole entry): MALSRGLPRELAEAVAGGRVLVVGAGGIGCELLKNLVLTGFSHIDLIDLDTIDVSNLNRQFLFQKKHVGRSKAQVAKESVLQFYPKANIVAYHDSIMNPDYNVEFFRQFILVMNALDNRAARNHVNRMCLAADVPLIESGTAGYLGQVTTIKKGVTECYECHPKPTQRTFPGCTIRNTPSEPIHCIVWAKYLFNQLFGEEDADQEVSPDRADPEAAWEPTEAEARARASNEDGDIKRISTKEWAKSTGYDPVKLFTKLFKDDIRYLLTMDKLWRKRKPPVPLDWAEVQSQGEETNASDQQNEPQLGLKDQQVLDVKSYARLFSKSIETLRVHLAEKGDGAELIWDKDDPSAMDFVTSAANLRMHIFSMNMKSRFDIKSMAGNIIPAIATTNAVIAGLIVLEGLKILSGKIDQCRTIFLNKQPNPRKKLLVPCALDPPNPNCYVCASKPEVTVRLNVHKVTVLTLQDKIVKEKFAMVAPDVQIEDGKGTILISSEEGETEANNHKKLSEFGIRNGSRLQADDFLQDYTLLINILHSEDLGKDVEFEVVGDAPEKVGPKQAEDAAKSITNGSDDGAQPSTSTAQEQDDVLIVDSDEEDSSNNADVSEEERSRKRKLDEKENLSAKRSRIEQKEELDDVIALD
# Chain of Cytochrome P450 3A4 (P08684 whole entry): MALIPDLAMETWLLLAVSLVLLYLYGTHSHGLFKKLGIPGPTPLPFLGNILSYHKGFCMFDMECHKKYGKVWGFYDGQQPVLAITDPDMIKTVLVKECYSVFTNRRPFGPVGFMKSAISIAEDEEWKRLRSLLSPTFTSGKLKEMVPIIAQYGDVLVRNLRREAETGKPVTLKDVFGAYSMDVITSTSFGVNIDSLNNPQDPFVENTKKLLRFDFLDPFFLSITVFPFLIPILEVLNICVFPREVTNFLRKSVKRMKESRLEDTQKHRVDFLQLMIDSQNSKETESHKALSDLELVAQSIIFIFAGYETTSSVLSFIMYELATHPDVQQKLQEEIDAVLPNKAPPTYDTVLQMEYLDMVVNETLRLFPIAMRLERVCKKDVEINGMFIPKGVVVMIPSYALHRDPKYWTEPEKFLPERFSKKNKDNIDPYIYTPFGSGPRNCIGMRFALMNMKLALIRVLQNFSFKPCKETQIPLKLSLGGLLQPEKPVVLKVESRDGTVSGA
# Chain of Intestinal-type alkaline phosphatase (Mus musculus, UniProt P24822) (P24822 whole entry): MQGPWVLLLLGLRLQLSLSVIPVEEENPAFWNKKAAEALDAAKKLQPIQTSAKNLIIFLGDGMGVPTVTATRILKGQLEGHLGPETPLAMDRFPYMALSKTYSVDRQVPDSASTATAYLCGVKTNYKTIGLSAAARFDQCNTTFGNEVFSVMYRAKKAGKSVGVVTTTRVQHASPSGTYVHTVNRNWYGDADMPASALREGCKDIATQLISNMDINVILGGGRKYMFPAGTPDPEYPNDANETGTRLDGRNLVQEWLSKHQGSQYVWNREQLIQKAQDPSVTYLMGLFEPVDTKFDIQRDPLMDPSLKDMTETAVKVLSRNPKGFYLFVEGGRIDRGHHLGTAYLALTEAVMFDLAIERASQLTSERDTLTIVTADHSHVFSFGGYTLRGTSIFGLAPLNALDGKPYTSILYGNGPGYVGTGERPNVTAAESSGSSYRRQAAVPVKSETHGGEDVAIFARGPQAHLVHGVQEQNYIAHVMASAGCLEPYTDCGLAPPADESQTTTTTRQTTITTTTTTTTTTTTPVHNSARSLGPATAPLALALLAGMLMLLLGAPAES
# Chain of Induced myeloid leukemia cell differentiation protein Mcl-1 (Q07820 whole entry): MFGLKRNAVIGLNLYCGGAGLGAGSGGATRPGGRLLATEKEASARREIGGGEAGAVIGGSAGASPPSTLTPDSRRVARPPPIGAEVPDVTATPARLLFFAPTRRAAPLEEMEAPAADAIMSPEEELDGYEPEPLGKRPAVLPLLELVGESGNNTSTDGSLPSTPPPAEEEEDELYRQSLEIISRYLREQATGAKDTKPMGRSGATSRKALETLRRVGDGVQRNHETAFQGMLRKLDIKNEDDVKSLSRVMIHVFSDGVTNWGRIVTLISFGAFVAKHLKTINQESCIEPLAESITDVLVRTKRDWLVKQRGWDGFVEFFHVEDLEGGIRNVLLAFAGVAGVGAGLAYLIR
# Chain of Genome polyprotein (Q2Q167 whole entry): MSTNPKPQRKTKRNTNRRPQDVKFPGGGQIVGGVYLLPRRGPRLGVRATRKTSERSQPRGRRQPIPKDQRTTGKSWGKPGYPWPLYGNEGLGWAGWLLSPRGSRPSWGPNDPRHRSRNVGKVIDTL
# Chain of Beta-galactosidase (Q8VNN2 whole entry): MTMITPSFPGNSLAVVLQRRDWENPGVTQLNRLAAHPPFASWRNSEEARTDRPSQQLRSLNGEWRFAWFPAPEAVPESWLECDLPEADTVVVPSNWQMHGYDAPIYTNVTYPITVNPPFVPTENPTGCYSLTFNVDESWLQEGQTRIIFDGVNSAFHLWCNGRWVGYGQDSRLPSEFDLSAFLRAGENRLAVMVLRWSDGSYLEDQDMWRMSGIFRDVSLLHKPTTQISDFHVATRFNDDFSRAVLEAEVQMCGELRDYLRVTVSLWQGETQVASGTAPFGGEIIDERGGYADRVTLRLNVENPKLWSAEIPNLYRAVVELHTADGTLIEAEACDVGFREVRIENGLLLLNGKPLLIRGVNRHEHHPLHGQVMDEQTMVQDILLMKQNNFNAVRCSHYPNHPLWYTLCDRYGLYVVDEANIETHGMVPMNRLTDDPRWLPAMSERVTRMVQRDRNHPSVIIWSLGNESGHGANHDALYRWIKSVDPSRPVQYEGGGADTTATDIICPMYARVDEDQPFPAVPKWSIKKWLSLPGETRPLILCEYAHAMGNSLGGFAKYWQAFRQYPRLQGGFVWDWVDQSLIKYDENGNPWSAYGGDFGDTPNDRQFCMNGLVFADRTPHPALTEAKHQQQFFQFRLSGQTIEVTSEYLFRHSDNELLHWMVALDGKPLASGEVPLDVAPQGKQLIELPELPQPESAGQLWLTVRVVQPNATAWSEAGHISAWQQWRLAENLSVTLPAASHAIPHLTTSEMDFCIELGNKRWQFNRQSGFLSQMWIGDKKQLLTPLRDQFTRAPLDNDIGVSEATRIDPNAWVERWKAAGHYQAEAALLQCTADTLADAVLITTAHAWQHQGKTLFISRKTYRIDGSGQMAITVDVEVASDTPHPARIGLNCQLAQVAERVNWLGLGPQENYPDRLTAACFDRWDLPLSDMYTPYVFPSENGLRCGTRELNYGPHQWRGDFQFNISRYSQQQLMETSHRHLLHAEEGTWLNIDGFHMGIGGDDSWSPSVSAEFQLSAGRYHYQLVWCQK
# Chain of Cytochrome P450 2C19 (P33261 whole entry): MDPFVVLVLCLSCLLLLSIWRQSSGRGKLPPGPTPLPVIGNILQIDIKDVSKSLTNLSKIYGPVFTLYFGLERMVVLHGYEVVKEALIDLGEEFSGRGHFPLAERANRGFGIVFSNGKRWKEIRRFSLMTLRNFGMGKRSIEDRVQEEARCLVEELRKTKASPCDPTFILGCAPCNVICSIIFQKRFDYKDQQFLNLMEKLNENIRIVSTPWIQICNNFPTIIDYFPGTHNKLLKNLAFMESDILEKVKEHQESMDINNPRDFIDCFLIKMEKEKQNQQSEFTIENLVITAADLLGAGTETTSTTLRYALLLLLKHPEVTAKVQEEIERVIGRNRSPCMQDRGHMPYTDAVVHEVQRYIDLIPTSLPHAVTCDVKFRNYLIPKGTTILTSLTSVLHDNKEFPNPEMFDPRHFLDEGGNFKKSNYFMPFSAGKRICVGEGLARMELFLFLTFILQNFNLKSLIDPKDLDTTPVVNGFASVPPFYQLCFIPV
# Chain of Type-1 angiotensin II receptor (P30556 whole entry): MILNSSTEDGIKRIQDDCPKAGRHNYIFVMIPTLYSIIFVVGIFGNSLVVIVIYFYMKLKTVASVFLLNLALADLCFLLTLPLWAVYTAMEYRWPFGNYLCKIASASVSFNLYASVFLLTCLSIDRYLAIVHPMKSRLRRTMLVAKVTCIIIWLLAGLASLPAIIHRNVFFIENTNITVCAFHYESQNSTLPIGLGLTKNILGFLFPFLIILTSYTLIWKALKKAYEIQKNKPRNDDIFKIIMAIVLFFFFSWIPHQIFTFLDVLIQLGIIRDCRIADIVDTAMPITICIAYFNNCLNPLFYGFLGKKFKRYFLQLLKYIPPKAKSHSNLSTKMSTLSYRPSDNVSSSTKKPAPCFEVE
smiles,measurement,setting,value
COc1ccc2c(=O)c(-c3ccccc3)c(C)oc2c1,AC50,Cytochrome P450 2C9,10 µM (inconclusive)
same,AC50,Cytochrome P450 3A4,inconclusive
Cc1cc(N2CCN(C)CC2)nc2ccc(NC(S)=NCCN3CCc4ccccc4C3)cc12,CC50,Vero,15.9 µM (active)
same,AC50,[1],20.4 µM (active)
same,EC50,[2],> 60 µM (not active)
same,IC50,[3],4.81 µM (active)
same,IC50,[4],4.64 µM (active)
same,EC50,[5],0.683 µM (active)
CN(C)CC(=O)c1ccc(-c2ccccc2)cc1,IC50,[6],> 40 µM (not active)
same,EC50,Beta-galactosidase,> 40 µM (inactive)
CCCNC(=O)COC(=O)c1ccccc1C(=O)c1ccc(Cl)c([N+](=O)[O-])c1,AC50,[7],7.32 µM (active)
same,AC50,[8],8.34 µM (active)
same,AC50,A-375 [9],34.3 µM (active)
same,AC50,[10],10.7 µM (active)
same,AC50,[11],10.6 µM (active)
same,AC50,[12],8.85 µM (active)
CCCCN(CC)CCN=C(S)Nc1ccc2nc(N3CCN(C)CC3)cc(C)c2c1,AC50,[1],22.5 µM (active)
same,EC50,[2],4.9 µM (active)
same,AC50,Escherichia coli,56 µM (active)
same,EC50,[5],0.34 µM (active)
same,AC50,[13],5.01 µM (active)
CC(=O)c1sc2nc(CSc3nnnn3-c3ccccc3)[nH]c(=O)c2c1C,IC50,[14],1.71 µM (active)
same,IC50,[15],50 µM (inactive)
same,IC50,SUMO-activating enzyme [16],6.5 µM (active)
same,IC50,SUMO-activating enzyme [17],27.9 µM (active)
same,IC50,Genome polyprotein,> 49.8 µM (not active)
O=C(c1ccccc1)c1c[nH]c(C(=O)NCCCN2CCOCC2)c1,AC50,Cytochrome P450 1A2,25.1 µM (inconclusive)
same,AC50,Cytochrome P450 2C19,0.0355 µM (inconclusive)
same,AC50,Cytochrome P450 3A4,inconclusive
CC(C)Oc1ccc(CCC(=O)NNC(=S)NCc2ccccc2)cc1,EC50,[18],18.8 µM (active)
same,IC50,[19],60.3 µM (active)
same,EC50,[20],21.1 µM (active)
same,EC50,[21],21.8 µM (active)
O=C(COc1ccc(Cl)cc1Cl)Nc1ccccn1,AC50,[8],2.19 µM (active)
same,AC50,A-375 [22],18.4 µM (active)
COc1ccc(OC)c(-n2c(SCC(=O)N3CCc4ccccc43)nc3c(c2=O)SCC3)c1,AC50,Escherichia coli,71.1 µM (active)
OC(c1nc2cc(F)ccc2[nH]1)C(O)c1nc2cc(F)ccc2[nH]1 (stereo not drawn),EC50,[18],4.97 µM (active)
same,IC50,[19],58.5 µM (active)
same,EC50,[20],9.85 µM (active)
same,EC50,[21],9.13 µM (active)
CCOc1ccc(-c2nc(CSCC(=O)NC(C)CC)c(C)o2)cc1 (stereo not drawn),IC50,HEK293 [23],35.7 µM (inactive)
same,IC50,Jurkat,> 80 µM (inactive)
same,IC50,HEK293 [24],74.6 µM (inactive)
